# According to US10654834B2 (Venenum Biodesign, LLC, priority 2016, dated 2020):
# pEC50: −log10 of the molar value.
# Assays:
# mouse TGR5 receptor = target: T1, mouse TGR5 receptor (Mus musculus, UniProt Q80SS6); test: Mouse TGR5 HTRF cAMP production assay (HEK293-EBNA cells, Cisbio cAMP HiRange kit); type: cell-based; details: HEK293-EBNA cells overexpressing mouse TGR5, HTRF cAMP assay
# T1 construct: host or cells: HEK293-EBNA (293 c18, ATCC CRL10852)
# T1 sequence (Q80SS6 1-329): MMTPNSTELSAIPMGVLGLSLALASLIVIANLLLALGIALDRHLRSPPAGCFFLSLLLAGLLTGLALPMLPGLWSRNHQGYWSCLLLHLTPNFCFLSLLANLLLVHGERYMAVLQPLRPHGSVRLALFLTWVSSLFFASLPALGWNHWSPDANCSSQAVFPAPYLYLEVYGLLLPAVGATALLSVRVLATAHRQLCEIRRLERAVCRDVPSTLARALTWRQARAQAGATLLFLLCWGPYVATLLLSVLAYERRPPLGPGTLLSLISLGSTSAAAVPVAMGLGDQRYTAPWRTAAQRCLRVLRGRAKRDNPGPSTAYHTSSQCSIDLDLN
# How it was run: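 HEK293-EBNA cells stably expressing mouse TGR5 (episomal vector) were suspended in serum-free DMEM with 500 μM IBMX and exposed to 12-point half-log compound dilutions for 1 h at room temperature. cAMP was detected by HTRF (d2-cAMP/anti-cAMP cryptate, 1 h, room temperature), giving EC50 from duplicates.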
# human TGR5 receptor = target: T2, human TGR5 receptor (Homo sapiens, UniProt Q8TDU6); test: Human TGR5 cAMP production assay (hTGR5-CHO cells, DiscoveRx cAMP XS+ kit); type: cell-based; details: luminescent cAMP assay, read-out: Human TGR5 Lum. cAMP Activity (EC50)
# T2 construct: host or cells: CHO-K1 (hTGR5-CHO)
# T2 sequence (Q8TDU6 1-330): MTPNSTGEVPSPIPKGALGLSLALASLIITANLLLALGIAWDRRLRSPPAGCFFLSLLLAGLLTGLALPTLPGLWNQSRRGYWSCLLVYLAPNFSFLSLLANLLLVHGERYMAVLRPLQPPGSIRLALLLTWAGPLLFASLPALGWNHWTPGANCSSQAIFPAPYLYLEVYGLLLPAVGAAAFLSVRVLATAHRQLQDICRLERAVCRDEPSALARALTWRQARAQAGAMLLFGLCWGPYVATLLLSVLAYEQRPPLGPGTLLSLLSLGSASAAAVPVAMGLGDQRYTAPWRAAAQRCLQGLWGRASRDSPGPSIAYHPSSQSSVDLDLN
# How it was run: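 CHO-K1 cells stably expressing hTGR5, in PBS with IBMX and cAMP antibody, treated with half-log compound dilutions for 1 h at room temperature. cAMP measured by enzyme-fragment complementation luminescence after overnight detection; EC50 values reported.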
SMILES,pEC50 (mouse TGR5 receptor),pEC50 (human TGR5 receptor)
"COc1cc(C(F)(F)F)ccc1CCNC(=O)[C@@H]1CCN1c1cc(N2CCC(CCC(=O)O)CC2)nc(C(F)(F)F)n1 [Compound 239, (S)-3-(1-(6-(2-((2-methoxy-4-(trifluoromethyl)phenethyl)carbamoyl)azetidin-1-yl)-2-(trifluoromethyl)pyrimidin-4-yl)piperidin-4-yl)propanoic acid]",> 7.00,> 7.00
CN(C)CCC1CCN(c2cc(N3CCC[C@H]3C(=O)NCCc3ccc(C(F)(F)F)cc3)nc(C(F)(F)F)n2)CC1 [Compound 5],> 7.00,> 7.00
"N#Cc1ccc(CCNC(=O)[C@@H]2CCN2c2cc(N3CCC(CCCC(=O)NC[C@@H](O)[C@H](O)[C@@H](O)[C@@H](O)CO)CC3)nc(C(F)(F)F)n2)cc1 [Compound 260, (S)—N-(4-cyanophenethyl)-1-(6-(4-(4-oxo-4-(((2R,3S,4S,5S)-2,3,4,5,6-pentahydroxyhexyl)amino)butyl)piperidin-1-yl)-2-(trifluoromethyl)pyrimidin-4-yl)azetidine-2-carboxamide]",> 7.00,> 7.00
"N#Cc1ccc(CCNC(=O)[C@@H]2CCN2c2cc(N3CCC(CCNc4c(NCCS(=O)(=O)O)c(=O)c4=O)CC3)nc(C(F)(F)F)n2)cc1 [Compound 297, (S)-2-((2-((2-(1-(6-(2-((4-cyanophenethyl)carbamoyl)azetidin-1-yl)-2-(trifluoromethyl)pyrimidin-4-yl)piperidin-4-yl)ethyl)amino)-3,4-dioxocyclobut-1-en-1-yl)amino)ethanesulfonic acid]",> 7.00,> 7.00
"N#Cc1ccc(CCNC(=O)[C@@H]2CCCN2c2cc(N3CCC(CCNC(=O)[C@@H](N)CS(=O)(=O)O)CC3)nc(C(F)(F)F)n2)cc1 [Compound 123, (R)-2-amino-3-((2-(1-(6-((S)-2-((4-cyanophenethyl)carbamoyl)pyrrolidin-1-yl)-2-(trifluoromethyl)pyrimidin-4-yl)piperidin-4-yl)ethyl)amino)-3-oxopropane-1-sulfonic acid]",> 7.00,> 7.00
"N#Cc1ccc(CCNC(=O)[C@@H]2CCN2c2cc(N3CCC(CCCC(=O)O)CC3)nc(C(F)(F)F)n2)cc1 [Compound 231, (S)-4-(1-(6-(2-((4-cyanophenethyl)carbamoyl)azetidin-1-yl)-2-(trifluoromethyl)pyrimidin-4-yl)piperidin-4-yl)butanoic acid]",> 7.00,> 7.00
N#Cc1ccc(CCNC(=O)[C@@H]2CCCN2c2cc(N3CCC(CCC(=O)O)CC3)nc(C(F)(F)F)n2)cc1 [Compound 28],> 7.00,6.00 to 7.00
"N#Cc1ccc(CCNC(=O)[C@@H]2CCN2c2cc(N3CCC(CCNC(=O)NCCC(=O)O)CC3)nc(C(F)(F)F)n2)cc1 [Compound 268, (S)-3-(3-(2-(1-(6-(2-((4-cyanophenethyl)carbamoyl)azetidin-1-yl)-2-(trifluoromethyl)pyrimidin-4-yl)piperidin-4-yl)ethyl)ureido)propanoic acid]",> 7.00,> 7.00
"NS(=O)(=O)CCNC(=O)CCCC1CCN(c2cc(N3CCC[C@H]3C(=O)NCCc3ccc(C(F)(F)F)cc3)nc(C(F)(F)F)n2)CC1 [Compound 59, (S)-1-(6-(4-(4-oxo-4-((2-sulfamoylethyl)amino)butyl)piperidin-1-yl)-2-(trifluoromethyl)pyrimidin-4-yl)-N-(4-(trifluoromethyl)phenethyl)-pyrrolidine-2-carboxamide]",> 7.00,> 7.00
"CS(=O)(=O)NCCOCCNC(=O)NCCC1CCN(c2cc(N3CC[C@H]3C(=O)NCCc3ccc(C#N)cc3)nc(C(F)(F)F)n2)CC1 [Compound 292, (S)-N-(4-cyanophenethyl)-1-(6-(4-(2-(3-(2-(2-(methylsulfonylamino)-ethoxy)ethyl)ureido)ethyl)piperidin-1-yl)-2-(trifluoromethyl)pyrimidin-4-yl)azetidine-2-carboxamide]",> 7.00,> 7.00
O=C(O)CCCC1CCN(c2cc(N3CCC[C@H]3C(=O)NCCc3ccc(C(F)(F)F)cc3)nc(C(F)(F)F)n2)CC1 [Compound 9],> 7.00,> 7.00
"N#Cc1ccc(CCNC(=O)[C@@H]2CCCN2c2cc(N3CCC(CCCC(=O)NCS(=O)(=O)O)CC3)cc(C(F)(F)F)n2)cc1 [Compound 198, (S)-(4-(1-(2-(2-((4-cyanophenethyl)carbamoyl)pyrrolidin-1-yl)-6-(trifluoromethyl)pyridin-4-yl)piperidin-4-yl)butanamido)methanesulfonic acid]",> 7.00,> 7.00
"N#Cc1ccc(CCNC(=O)[C@@H]2CCCN2c2cc(N3CCC(CCNc4c(NCCC(=O)O)c(=O)c4=O)CC3)nc(C(F)(F)F)n2)cc1 [Compound 368, (S)-3-((2-((2-(1-(6-(2-((4-cyanophenethyl)carbamoyl)pyrrolidin-1-yl)-2-(trifluoromethyl)pyrimidin-4-yl)piperidin-4-yl)ethyl)amino)-3,4-dioxocyclobut-1-en-1-yl)amino)propanoic acid]",> 7.00,> 7.00

# The next lines start with the values.
pEC50 (mouse TGR5 receptor),pEC50 (human TGR5 receptor),SMILES
> 7.00,> 7.00,"N#Cc1ccc(CCNC(=O)[C@@H]2CCN2c2cc(N3CCC(CCNC(=O)NCCS(=O)(=O)O)CC3)nc(C(F)(F)F)n2)cc1 [Compound 271, (S)-2-(3-(2-(1-(6-(2-((4-cyanophenethyl)carbamoyl)azetidin-1-yl)-2-(trifluoromethyl)pyrimidin-4-yl)piperidin-4-yl)ethyl)ureido)-ethanesulfonic acid]"
> 7.00,> 7.00,"N#Cc1ccc(CCNC(=O)[C@@H]2CCCN2c2cc(N3CCC(CCCC(=O)NCCC(=O)NC(CO)(CO)CO)CC3)nc(C(F)(F)F)n2)cc1 [Compound 109, (S)—N-(4-cyanophenethyl)-1-(6-(4-(4-((3-((1,3-dihydroxy-2-(hydroxymethyl)propan-2-yl)amino)-3-oxopropyl)amino)-4-oxobutyl)piperidin-1-yl)-2-(trifluoromethyl)-pyrimidin-4-yl)pyrrolidine-2-carboxamide]"
> 7.00,> 7.00,"N#Cc1ccc(CCNC(=O)[C@@H]2CCCN2c2cc(N3CCC(CCNS(=O)(=O)CCNC(=O)[C@@H](N)CS(=O)(=O)O)CC3)nc(C(F)(F)F)n2)cc1 [Compound 125, (R)-2-amino-3-((2-(N-(2-(1-(6-((S)-2-((4-cyanophenethyl)carbamoyl)-pyrrolidin-1-yl)-2-(trifluoromethyl)-pyrimidin-4-yl)piperidin-4-yl)ethyl)sulfamoyl)ethyl)amino)-3-oxopropane-1-sulfonic acid]"
> 7.00,> 7.00,"N#Cc1ccc(CCNC(=O)[C@@H]2CCCN2c2cc(N3CCC(CCCC(=O)NCCCC[C@H](NC(=N)N)C(=O)O)CC3)nc(C(F)(F)F)n2)cc1 [Compound 129, (S)-6-(4-(1-(6-((S)-2-((4-cyanophenethyl)carbamoyl)pyrrolidin-1-yl)-2-(trifluoromethyl)pyrimidin-4-yl)piperidin-4-yl)butanamido)-2-guanidinohexanoic acid]"
> 7.00,> 7.00,"N#Cc1ccc(CCNC(=O)[C@@H]2CCCN2c2cc(N3CCC(CCCC(=O)NCCS(N)(=O)=O)CC3)nc(C(F)(F)F)n2)cc1 [Compound 62, (S)-N-(4-cyanophenethyl)-1-(6-(4-(4-oxo-4-((2-sulfamoylethyl)amino)butyl)piperidin-1-yl)-2-(trifluoromethyl)pyrimidin-4-yl)pyrrolidine-2-carboxamide]"
> 7.00,> 7.00,"N#Cc1ccc(CCNC(=O)[C@@H]2CCCN2c2cc(N3CCC(CCCC(=O)NCCNc4ncc(C(=O)NCCS(=O)(=O)O)cn4)CC3)nc(C(F)(F)F)n2)cc1 [Compound 112, (S)-2-(2-((2-(4-(1-(6-(2-((4-cyanophenethyl)carbamoyl)pyrrolidin-1-yl)-2-(trifluoromethyl)pyrimidin-4-yl)piperidin-4-yl)butanamido)ethyl)amino)-pyrimidine-5-carboxamido)ethanesulfonic acid]"
> 7.00,> 7.00,"N#Cc1ccc(CCNC(=O)[C@@H]2CCCN2c2cc(N3CCC(CCCC(=O)NCCS(=O)(=O)NCC(=O)O)CC3)nc(C(F)(F)F)n2)cc1 [Compound 115, (S)-2-(2-(4-(1-(6-(2-((4-cyanophenethyl)carbamoyl)pyrrolidin-1-yl)-2-(trifluoromethyl)pyrimidin-4-yl)piperidin-4-yl)butanamido)-ethylsulfonamido)acetic acid]"
